According to PMC12261219, “Comparative Evaluation of Thiol- and Amine-Conjugating Moieties for Endogenous Albumin Binding after Intravenous Administration” (ACS Pharmacology & Translational Science, 2025):
Several values for one entry are separate records, joined by “and”; a condition that tells them apart may be missing. Identical values can stand only once.

Columns and labels:
albumin (mouse serum) = target: T1, albumin (mouse serum) (Mus musculus, UniProt P07724); experiment: SEC-ICP-MS albumin binding in mouse serum; format: in vitro ADME; details: 100 µM, 37 °C
T1 construct: The serum was separated by centrifugation (two times 10 min at 900 g) after 10–20 min clotting at room temperature; from tissue; host or cells: serum of Balb/c mice
Description: (§1) Blood of Bab/c mice was collected under anesthesia via heart puncture. […] Human serum was purchased from Sigma-Aldrich. In order to guarantee a stable pH, all sera were buffered with 150 mM phosphate to pH 7.4 by dissolving the necessary amounts of Na2HPO4 and NaH2PO4 directly in the serum. […] The samples were then incubated in the autosampler at 37 °C and analyzed every hour for 4 or 5 h and after 24 h. Between each sample a pure water blank was measured. For measurements with 10 min intervals the same procedure was followed, but the blank measurements were omitted. For SEC-ICP-MS measurements an Agilent 1260 Infinity system coupled to an Agilent 7800 ICP-HRMS equipped with a dynamic reaction cell was used. Oxygen (purity 5.5, Messer Austria GmbH, Gumpoldskirchen, Austria) was used as reaction gas.

apotransferrin = target: T2, apotransferrin (Homo sapiens, UniProt P02787); experiment: SEC-ICP-MS with single serum protein solution: apotransferrin; format: binding; details: 200 μM apotransferrin, 100 μM compound, 100 mM PB pH 7.4, 37 °C, 2 h
T2 construct: purchased Sigma-Aldrich T1147
Description: (§2) All investigated proteins were purchased from commercial suppliers: Albumin (Sigma-Aldrich, A8763), IgG (Athens Research, 16–16–090707), α1-antitrypsin (Sigma-Aldrich, A6150) and apotransferrin (Sigma-Aldrich, T1147). […] The compound stocks were diluted into the protein solution to reach a final concentration of 100 μM (27 μL protein and 3 μL compound). The samples were incubated at 37 °C for 2 h and analyzed as described for the SEC-ICP-MS studies (Tables S6 and S7).

[1] = Serum pharmacokinetics (platinum, ICP-MS) in CT26-bearing Balb/c mice
Description: CT26 cells (5 × 10^5 in 50 μL serum-free medium) were injected subcutaneously (s.c.) into the right flank of male Balb/c mice. […] The blood, tumor and organ collection followed the study design in Figure A. Briefly, to assess serum platinum levels, blood was collected after 5 min, 30 min, 5 h and 24 h (2 mice per time point) via the facial vein. The serum was separated by centrifugation (two times 10 min at 900 g) after 10 min clotting at room temperature. […] All collected samples were stored at −20 °C and further processed for platinum measurements via ICP-MS as follows: HNO3 (67–69%, suprapur for trace metal analysis, NORMATOM; Distributor: VWR international, Austria) and conc. H2O2 suprapur (Merck, 30%) were used without further purification. Digestion of tissue (approximately 15–30 mg gravimetrically weighted) was performed with 2 mL of approximately 20% HNO3 and 100 μL H2O2 using an open vessel graphite digestion system (coated graphite heating plate, coated sample holder-top for 25 mL vials, PFA vials and PFA lids; Labter, ODLAB; Distributor: AHF Analysentechnik AG; Germany). Digested samples were diluted in Milli-Q water (18.2 MΩ cm, Milli-Q Advantage, Darmstadt, Germany). For the ICP-MS analysis, platinum and rhenium standards were derived from CPI International (Amsterdam, The Netherlands). The total platinum content was determined with a quadrupole-based Agilent 7800 ICP-MS instrument (Agilent Technologies, Tokyo, Japan) equipped with the Agilent SPS 4 autosampler (Agilent Technologies, Tokyo, Japan) and a MicroMist nebulizer at a sample uptake rate of approximately 0.2 mL/min. An RF power of 1550 W was used as well as nickel cones. Argon was used as plasma gas (15 L/min) and as carrier gas (∼1.1 L/min). The dwell time was set to 0.1 s and the measurements were performed in 6 replicates with 100 sweeps. Rhenium served as internal standard for platinum. The Agilent MassHunter software package (Workstation Software, version C.01.04) was used for data processing.
As platinum was measured in serum, equimolar administered doses were adjusted to correspond to platinum (0.0227 mmol, 4.42 mg platinum). The area under the “concentration”–time curve (AUC) was determined from time 0 to infinity (AUCPt_0‑∞) and from time 0 to 24 h (AUCPt_0–24, based on the last observed sample at 24 h; linear-log trapezoidal calculation method). The terminal slope (λ z ) was determined based on the last two (out of four) measurements (times 5 h and 24 h).

IgG = experiment: SEC-ICP-MS with single serum protein solution: IgG; format: binding, human; details: 200 μM IgG, 100 μM compound, 100 mM PB pH 7.4, 37 °C, 2 h
Description: as §2

albumin (human serum) = target: T3, albumin (human serum) (Homo sapiens, UniProt P02768); experiment: SEC-ICP-MS albumin binding in human serum; format: in vitro ADME; details: for Pt195 in HMWF (albumin-bound) / Pt195 in LMWF: 100 µM, 37 °C
T3 construct: Human serum was purchased from Sigma-Aldrich; tissue Sigma-Aldrich; host or cells: human serum
Description: as §1

α1-antitrypsin = target: T4, α1-antitrypsin (Homo sapiens, UniProt P01009); experiment: SEC-ICP-MS with single serum protein solution: α1-antitrypsin; format: binding; details: 200 μM α1-antitrypsin, 100 μM compound, 100 mM PB pH 7.4, 37 °C, 2 h
T4 construct: purchased Sigma-Aldrich A6150
Description: as §2

[2] = Reduction with ascorbic acid, release of oxaliplatin (HPLC); format: physicochemical; details: 0.5 mM, 150 mM PB, pH 7.4, 20 °C, 30 eq. ascorbic acid
Description: The samples were incubated at 20 °C and measured over 25 h. […] RP-HPLC runs were performed using a Waters Acquity UPLC HSS T3 column (100 Å, 1.8 μm, 3.0 mm × 50 mm) on a Dionex Thermo Scientific UltiMate 3000 HPLC system, equipped with a HPG-3400RS binary pump and a DAD-3000RS UV–vis detector. Chromatograms were evaluated at a wavelength of 230 nm. Milli-Q water (mobile phase A) and acetonitrile (mobile phase B), both containing 0.1% TFA, were used as eluents. The flow rate was consistent at 0.6 mL/min for all measurements using the following gradient: 0–0.5 min A 99:1 B, 0.5–5.5 min linear gradient to A 1:99 B, 5.5–6.5 min A 1:99 B, 6.5–9.2 min A 99:1 B.

albumin = target: T5, albumin (Homo sapiens, UniProt P02768); experiment: SEC-ICP-MS with single serum protein solution: albumin; format: binding; details: 200 μM albumin, 100 μM compound, 100 mM PB pH 7.4, 37 °C, 2 h
T5 construct: purchased Sigma-Aldrich A8763
Description: as §2

[3] = pH 7.4, 10 min intervals, 0 min
[4] = pH 7.4, 10 min intervals, 10 min
[5] = pH 7.4, 10 min intervals, 20 min
[6] = pH 7.4, 10 min intervals, 30 min
[7] = pH 7.4, 10 min intervals, 40 min
[8] = pH 7.4, 10 min intervals, 50 min
[9] = pH 7.4, 10 min intervals, 60 min

T3 sequence (P02768 25-609): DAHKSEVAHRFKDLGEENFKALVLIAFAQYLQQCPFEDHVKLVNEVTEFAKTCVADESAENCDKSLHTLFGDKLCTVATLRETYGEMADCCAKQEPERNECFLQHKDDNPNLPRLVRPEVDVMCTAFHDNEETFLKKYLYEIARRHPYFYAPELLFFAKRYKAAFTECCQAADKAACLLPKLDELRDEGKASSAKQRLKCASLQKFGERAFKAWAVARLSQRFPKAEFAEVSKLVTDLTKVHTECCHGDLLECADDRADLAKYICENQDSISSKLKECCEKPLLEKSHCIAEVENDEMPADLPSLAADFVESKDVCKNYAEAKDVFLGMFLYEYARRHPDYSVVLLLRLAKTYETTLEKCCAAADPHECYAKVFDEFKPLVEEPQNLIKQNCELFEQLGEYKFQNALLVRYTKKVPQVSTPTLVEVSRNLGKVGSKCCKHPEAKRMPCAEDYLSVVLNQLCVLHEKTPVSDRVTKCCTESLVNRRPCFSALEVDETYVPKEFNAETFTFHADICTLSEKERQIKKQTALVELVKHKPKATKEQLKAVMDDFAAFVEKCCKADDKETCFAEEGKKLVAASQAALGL
T1 sequence (P07724 25-608): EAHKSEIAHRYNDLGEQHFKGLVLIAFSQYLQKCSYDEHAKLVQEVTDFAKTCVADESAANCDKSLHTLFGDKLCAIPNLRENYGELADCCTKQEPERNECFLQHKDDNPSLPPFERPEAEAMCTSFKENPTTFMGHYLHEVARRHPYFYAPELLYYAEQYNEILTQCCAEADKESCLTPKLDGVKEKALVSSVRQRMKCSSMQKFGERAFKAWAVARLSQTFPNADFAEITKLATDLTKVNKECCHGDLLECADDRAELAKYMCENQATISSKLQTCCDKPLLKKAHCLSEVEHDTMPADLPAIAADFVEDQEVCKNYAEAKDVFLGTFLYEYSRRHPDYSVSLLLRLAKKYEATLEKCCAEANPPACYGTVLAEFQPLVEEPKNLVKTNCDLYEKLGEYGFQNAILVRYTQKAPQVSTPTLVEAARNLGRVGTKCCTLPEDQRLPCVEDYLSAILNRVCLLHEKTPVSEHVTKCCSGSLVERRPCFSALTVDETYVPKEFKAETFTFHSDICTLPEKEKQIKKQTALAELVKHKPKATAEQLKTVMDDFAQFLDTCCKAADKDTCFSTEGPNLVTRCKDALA
T2 sequence (P02787 20-698): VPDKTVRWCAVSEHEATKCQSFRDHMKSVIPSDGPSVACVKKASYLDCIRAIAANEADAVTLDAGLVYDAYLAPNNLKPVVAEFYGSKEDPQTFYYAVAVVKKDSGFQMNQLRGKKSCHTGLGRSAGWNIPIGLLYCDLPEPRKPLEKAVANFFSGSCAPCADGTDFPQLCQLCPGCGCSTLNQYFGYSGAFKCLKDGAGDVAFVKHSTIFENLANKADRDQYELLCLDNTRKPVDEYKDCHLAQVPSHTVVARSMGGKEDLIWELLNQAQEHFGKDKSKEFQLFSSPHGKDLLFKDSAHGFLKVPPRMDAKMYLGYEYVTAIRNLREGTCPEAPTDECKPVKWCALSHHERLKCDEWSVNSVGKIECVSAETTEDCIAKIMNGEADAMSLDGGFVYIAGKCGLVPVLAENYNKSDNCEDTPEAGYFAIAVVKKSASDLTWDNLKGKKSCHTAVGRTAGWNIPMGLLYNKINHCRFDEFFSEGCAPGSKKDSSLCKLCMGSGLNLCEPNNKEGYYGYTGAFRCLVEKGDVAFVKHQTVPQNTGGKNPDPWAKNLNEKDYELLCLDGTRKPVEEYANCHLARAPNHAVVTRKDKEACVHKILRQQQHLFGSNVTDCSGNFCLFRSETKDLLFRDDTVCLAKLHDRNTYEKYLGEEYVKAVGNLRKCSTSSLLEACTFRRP
T5 sequence (P02768 25-609): as the sequence (P02768 25-609) above
T4 sequence (P01009 25-418): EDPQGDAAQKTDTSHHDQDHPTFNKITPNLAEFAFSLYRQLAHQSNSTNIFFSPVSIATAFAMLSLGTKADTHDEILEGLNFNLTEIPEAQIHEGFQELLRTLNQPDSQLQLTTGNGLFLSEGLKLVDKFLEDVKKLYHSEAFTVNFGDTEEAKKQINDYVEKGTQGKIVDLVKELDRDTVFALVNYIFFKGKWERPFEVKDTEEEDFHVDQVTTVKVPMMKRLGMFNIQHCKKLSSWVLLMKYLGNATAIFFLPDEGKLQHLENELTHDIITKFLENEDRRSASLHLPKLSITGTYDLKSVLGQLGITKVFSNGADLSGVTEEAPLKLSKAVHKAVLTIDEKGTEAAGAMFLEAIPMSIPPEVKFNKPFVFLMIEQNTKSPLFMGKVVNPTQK

CC(=O)[O][Pt-2]12([O]C(=O)NCCOCCOCCOCCOc3ccc(-c4nnc(S(C)(=O)=O)o4)cc3)([NH2+][C@@H]3CCCC[C@H]3[NH2+]1)[O]C(=O)C(=O)[O]2 [PODS-Ox-OAc, (OC-6–34)-Acetato[(1R,2R)-1,2-cyclohexane-1,2-diamino][(2-(2-(2-(2-(4-(5-(methylsulfonyl)-1,3,4-oxadiazol-2-yl)-phenoxy)-ethoxy)-ethoxy)-ethoxy)-ethyl)-carbamato]-oxalato platinum(IV)]
Pt195 in HMWF (albumin-bound) (albumin (mouse serum); [3]): 34%
Pt195 in LMWF (albumin (mouse serum); [3]): 66%
Pt195 in HMWF (albumin-bound) (albumin (mouse serum); [4]): 59% and ~60%
Pt195 in LMWF (albumin (mouse serum); [4]): 41%
Pt195 in HMWF (albumin-bound) (albumin (mouse serum); [5]): 71%
Pt195 in LMWF (albumin (mouse serum); [5]): 29%
Pt195 in HMWF (albumin-bound) (albumin (mouse serum); [6]): 78%
Pt195 in LMWF (albumin (mouse serum); [6]): 22%
Pt195 in HMWF (albumin-bound) (albumin (mouse serum); [7]): 83%
Pt195 in LMWF (albumin (mouse serum); [7]): 17%
Pt195 in HMWF (albumin-bound) (albumin (mouse serum); [8]): 85%
Pt195 in LMWF (albumin (mouse serum); [8]): 15%
Pt195 in HMWF (albumin-bound) (albumin (mouse serum); [9]): 87%
Pt195 in LMWF (albumin (mouse serum); [9]): 13%
Pt195 in HMWF (albumin-bound) (albumin (mouse serum); pH 7.4, 1 h intervals, 0 h): 30%
Pt195 in LMWF (albumin (mouse serum); pH 7.4, 1 h intervals, 0 h): 70%
Pt195 in HMWF (albumin-bound) (albumin (mouse serum); pH 7.4, 1 h intervals, 1 h): 82% and ~80%
Pt195 in LMWF (albumin (mouse serum); pH 7.4, 1 h intervals, 1 h): 18%
Pt195 in HMWF (albumin-bound) (albumin (mouse serum); pH 7.4, 1 h intervals, 2 h): 80%
Pt195 in LMWF (albumin (mouse serum); pH 7.4, 1 h intervals, 2 h): 20%
Pt195 in HMWF (albumin-bound) (albumin (mouse serum); pH 7.4, 1 h intervals, 3 h): 80%
Pt195 in LMWF (albumin (mouse serum); pH 7.4, 1 h intervals, 3 h): 20%
Pt195 in HMWF (albumin-bound) (albumin (mouse serum); pH 7.4, 1 h intervals, 4 h): 79%
Pt195 in LMWF (albumin (mouse serum); pH 7.4, 1 h intervals, 4 h): 21%
Pt195 in HMWF (albumin-bound) (albumin (mouse serum); pH 7.4, 1 h intervals, 24 h): 80%
Pt195 in LMWF (albumin (mouse serum); pH 7.4, 1 h intervals, 24 h): 20%
Platinum in the HMWF (protein-bound) (apotransferrin): less than 10%
Serum platinum level higher than after Mal-Ox-OAc treatment ([1]; at 5 and 30 min, i.v.): about 50%
Cmax ([1]; serum platinum, measured at tmax=0.08 h, single i.v. dose 4.42 mg/kg Pt): 52.5 mg/kg
Percentage of AUCPt_0-∞ extrapolated from tlast to infinity ([1]; serum platinum, tlast=24 h): 25.5%
Half-life ([1]; terminal half-life, serum platinum, i.v.): 13.6 h
CL ([1]; total body clearance, serum platinum, single i.v. dose 4.42 mg/kg Pt): 0.00693 kg/h/kg
Vz ([1]; volume of distribution based on the terminal phase, serum platinum, i.v.): 0.136 kg/kg
Platinum in the HMWF (protein-bound) (IgG): less than 20%
Pt195 in HMWF (albumin-bound) (albumin (human serum); pH 7.4, 0 h): 2% and < 5%
Pt195 in LMWF (albumin (human serum); pH 7.4, 0 h): 98%
Pt195 in HMWF (albumin-bound) (albumin (human serum); pH 7.4, 1 h): 87% and ~90%
Pt195 in LMWF (albumin (human serum); pH 7.4, 1 h): 13%
Pt195 in HMWF (albumin-bound) (albumin (human serum); pH 7.4, 2 h): 91%
Pt195 in LMWF (albumin (human serum); pH 7.4, 2 h): 9%
Pt195 in HMWF (albumin-bound) (albumin (human serum); pH 7.4, 3 h): 92%
Pt195 in LMWF (albumin (human serum); pH 7.4, 3 h): 8%
Pt195 in HMWF (albumin-bound) (albumin (human serum); pH 7.4, 4 h): 92%
Pt195 in LMWF (albumin (human serum); pH 7.4, 4 h): 8%
Pt195 in HMWF (albumin-bound) (albumin (human serum); pH 7.4, 5 h): 92%
Pt195 in LMWF (albumin (human serum); pH 7.4, 5 h): 8%
Pt195 in HMWF (albumin-bound) (albumin (human serum); pH 7.4, 24 h): 92%
Pt195 in LMWF (albumin (human serum); pH 7.4, 24 h): 8%
Bound to albumin (albumin (human serum); from 1 to 24 h): ~90%
Platinum in the HMWF (protein-bound) (α1-antitrypsin): ~30%
Oxaliplatin detected (released) after 25 h [2]: 9%
Platinum in the HMWF (protein-bound) (albumin): 69%
